# Assays:
# wild type FVB/N mice [1] = test: Testes descent (palpation and opening the animal) after six weeks of p.o. treatment, wild type mice; type: in vivo, mouse; conditions: wild type FVB/N male mice, nine mice; finrozole 10 mg/kg p.o. daily for six weeks
# Experimental: (§1) The aromatase inhibitor finrozole {MPV-2213ad (10695U, without purification, Hormos Medical Ltd.} was the test compound. Vehicle (CMC-solution) was used as control substance. CMC-solution was prepared as follows: 0.25 g carboxylmethylcellulosa (CMC) (lot. 939512, Tamro OYJ) was weighed and solubilized in 50 ml of deionized (Milli-Q) water. The solution was prepared once a week and stored at +4° C. The dose level of finrozole 10 mg/kg dose level was used. The vehicle-test/control-solution, which was given to the test animals, was prepared daily as follows: the appropriate amount of finrozole was weighed in a transparent glass mortar. A few drops of vehicle were added and the mixture was thoroughly mixed. After this ⅓ of the final volume of vehicle was added to the mortar and placed into an ultrasonic incubator for five minutes. This procedure was done total of three times to reach the final volume.
# (§2) In the experiment there was […] different kind of groups of male mice, ten animals in each group. One control group (wild type FVB/N) received vehicle, as well as the other control (021 line) group. The last groups were treated with finrozole (10 mg/kg).
# (§3) The dosing (4 ml solution/kg) of the animals took place p.o. daily for six weeks. On Saturdays, however, double dose of the test compounds was given to animals. On sundays there was no treatment.
# (§4) The trial was conducted in total of 39 mice. […]
# [2] = test system: Aromatase over expressing mice AROM+ (line 021); test: Testes descent (palpation and opening the animal) after six weeks of p.o. treatment, AROM+ mice; type: in vivo, mouse; conditions: AROM+ (021) male mice, ten mice; finrozole 10 mg/kg p.o. daily for six weeks
# Experimental: as §1
# (§5) Aromatase over expressing mice AROM^+ were used in this study. The mice were maintained under standard laboratory conditions at 12:12 light/dark cycle, and received free access to soyfree pelleted food (SDS, Witham, Essex, UK), and tap water.
# We have generated a transgenic mouse model bearing the human ubiquitin C promoter/human P450 aromatase fusion gene (AROM^+). […] The AROM^+ males present with a multitude of severe structural and functional abnormalities of the reproductive system, such as cryptochidism, dysmorphic semiferous tubules and disrupted spermatogenesis. The males also have small or rudimentary accessory sex glands with abnormal morphology, a prominent prostatic utricle with squamous epithelial metaplasia, and abnormal morphology of ejaculatory duct and vas deferens. In addition, the abdominal wall muscle layer is thin, and the adrenals are enlarged with cortical hyperplasia. […] Some of the disorders in reproductive system, furthenmore, can be explained by the fact that the AROM^+ males are hypo-androgenic. […]
# wild type FVB/N mice [3] = test: Relative testes weights (testes weight/animal weight), wild type mice; type: in vivo, mouse; conditions: n = 7, finrozole 10 mg/kg p.o. daily for six weeks, SD 0.0003
# Experimental: as §1, §2, §3, §4
# [4] = test system: Aromatase over expressing mice AROM+ (line 021); test: Relative testes weights (testes weight/animal weight), AROM+ mice; type: in vivo, mouse; conditions: AROM+ (021) mice, n = 10; finrozole 10 mg/kg p.o. daily for six weeks; SD 0.0003
# Experimental: as §1, §5
# We have generated a transgenic mouse model bearing the human ubiquitin C promoter/human P450 aromatase fusion gene (AROM^+). […]
# [5] = test system: cryptorchidism (non-descended testes); conditions: according to one study; cited from earlier work
Molecule,Number of descended testes (wild type FVB/N mice [1]),Number of descended testes [2],Number of partly descended testes [2],Number of undescended testes [2],Relative testes weights (testes weight/animal weight) (wild type FVB/N mice [3]),Relative testes weights (testes weight/animal weight) [4],efficacy in cases of true non-descended testes [5]
"N#Cc1ccc(C(C(O)Cc2ccc(F)cc2)n2cncn2)cc1 (single isomer, unassigned) [finrozole, 1-[1-(4-cyanophenyl)-3-(4-fluorophenyl)-2-hydroxypropyl]-1,2,4-triazole, diasteroisomer a+d]",18,17,2,1,0.0027,0.0033,–
"LHRH: lutenizing-hormone releasing hormone, hormonal treatment of cryptorchidism (QHWSYGLRPG; Gonadoliberin-1; UniProt P01148 24-33, looked up)",–,–,–,–,–,–,ineffective
